Data published in patent US20110081315A1, “NOVEL MACROCYCLIC INHIBITORS OF HEPATITIS C VIRUS REPLICATION” (INTERMUNE, INC., priority 2009, published 2011).
Where two headings read alike, the source gives them in different places.

Assays:
hepatitis C replicon = hepatitis C replicon EC50 assay; format: cell-based; settings: Hepatitis C virus
From the text: (§1) NS3-NS4 inhibition activity can be determined using known assay methods. For example, NS3/NS4 complexes may be formed and inhibitory concentrations of test compounds determined as described in U.S. Patent Application Publication Number 2007/0054842 paragraph numbers 1497-1509, which is incorporated herein by reference in its entirety. Similarly, hepatitis C replicon EC50 may be determined using known assay methods such as described in U.S. Patent Application Publication Number 2007/0054842 paragraph numbers 1510-1515, which is incorporated herein by reference in its entirety. Assays may be conducted at ambient temperature (23° C.) in assay buffer containing 50 mM Tris-HCl, pH 7.5, 15% glycerol, 0.6 mM Lauryldimethylamine Oxide (LDAO), 25 μM NS4A peptide, and 10 mM Dithiothreitol (DTT).

NS3/NS4 complexes = NS3/NS4 complexes (Hepatitis C virus genotype 1a, UniProt P27958); test: NS3/NS4 inhibition assay (IC50); format: biochemical; settings: NS3/NS4 activity; 23° C., 25 μM NS4A peptide
From the text: as §1

[1] = hepatitis C replicon, read-out: EC50

Sequence of NS3/NS4 complexes (P27958 1027-1657, one chain of several): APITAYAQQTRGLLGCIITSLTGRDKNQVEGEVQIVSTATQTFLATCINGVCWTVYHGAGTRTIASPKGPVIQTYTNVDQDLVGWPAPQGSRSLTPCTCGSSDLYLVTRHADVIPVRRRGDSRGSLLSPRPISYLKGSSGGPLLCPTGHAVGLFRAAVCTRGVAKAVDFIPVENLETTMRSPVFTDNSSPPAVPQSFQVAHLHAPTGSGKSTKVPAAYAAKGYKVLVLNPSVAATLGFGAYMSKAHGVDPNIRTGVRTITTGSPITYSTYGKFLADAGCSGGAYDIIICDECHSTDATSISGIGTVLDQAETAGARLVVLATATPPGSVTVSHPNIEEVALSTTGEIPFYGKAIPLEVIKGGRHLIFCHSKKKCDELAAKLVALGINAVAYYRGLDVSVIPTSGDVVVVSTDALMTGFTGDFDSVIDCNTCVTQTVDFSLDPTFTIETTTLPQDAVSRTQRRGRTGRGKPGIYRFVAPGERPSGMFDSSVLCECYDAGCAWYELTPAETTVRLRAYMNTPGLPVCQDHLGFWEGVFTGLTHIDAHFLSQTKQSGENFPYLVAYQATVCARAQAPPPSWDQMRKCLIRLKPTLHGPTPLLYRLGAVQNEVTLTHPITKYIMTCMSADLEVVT

## CC(C)n1c(O[C@@H]2C[C@H]3C(=O)N[C@]4(C(=O)NS(=O)(=O)C5(C)CC5)C[C@H]4/C=C\CCCCC[C@H](NC(=O)OC(C)(C)C)C(=O)N3C2)nc2c(-c3csc(N4CCCCC4)n3)cccc21 [Compound 1706]
Hepatitis C replicon; [1]
  EC50: < 10 nM
NS3/NS4 complexes
  IC50: < 10 nM

## CNC(=O)c1cccc2c1nc(O[C@@H]1C[C@H]3C(=O)N[C@]4(C(=O)NS(=O)(=O)N(C)C)C[C@H]4/C=C\CCCCC[C@H](NC(=O)OC(C)(C)C)C(=O)N3C1)n2C(C)C [Compound 278]
Hepatitis C replicon; [1]
  EC50: 10 to 100 nM
NS3/NS4 complexes
  IC50: < 10 nM

## CCCc1nc(-c2cccc3c2nc(O[C@@H]2C[C@H]4C(=O)N[C@]5(C(=O)NS(=O)(=O)N(C)C)C[C@H]5/C=C\CCCCC[C@H](NC(=O)OC(C)(C)C)C(=O)N4C2)n3C(C)C)sc1C [Compound 1209]
Hepatitis C replicon; [1]
  EC50: < 10 nM
NS3/NS4 complexes
  IC50: < 10 nM

## CC(C)n1c(O[C@@H]2C[C@H]3C(=O)N[C@]4(C(=O)NS(=O)(=O)C5(C)CC5)C[C@H]4/C=C\CCCCC[C@H](Nc4ccccc4)C(=O)N3C2)nc2c(C(=O)NCc3ccccc3)cccc21 [Compound 274]
Hepatitis C replicon; [1]
  EC50: 10 to 100 nM
NS3/NS4 complexes
  IC50: < 10 nM

## CC(C)n1c(O[C@@H]2C[C@H]3C(=O)N[C@]4(C(=O)NS(=O)(=O)C5(C)CC5)C[C@H]4/C=C\CCCCC[C@H](Nc4ccccc4)C(=O)N3C2)nc2c(NC(=O)Nc3ccccc3)cccc21 [Compound 287]
Hepatitis C replicon
  EC50: 10 to 100 nM
NS3/NS4 complexes
  IC50: < 10 nM

## CC(C)c1csc(-c2cccc3c2nc(O[C@@H]2C[C@H]4C(=O)N[C@]5(C(=O)NS(=O)(=O)C6CC6)C[C@H]5/C=C\CCCCC[C@H](NC(=O)OC(C)(C)C)C(=O)N4C2)n3C(C)C)n1 [Compound 218]
Hepatitis C replicon; [1]
  EC50: < 10 nM
NS3/NS4 complexes
  IC50: < 10 nM

## CC(C)c1ccn(-c2cccc3c2nc(O[C@@H]2C[C@H]4C(=O)N[C@]5(C(=O)NS(=O)(=O)C6(C)CC6)C[C@H]5/C=C\CCCCC[C@H](NC(=O)OC(C)(C)C)C(=O)N4C2)n3C(C)C)n1 [Compound 1404]
Hepatitis C replicon; [1]
  EC50: < 10 nM
NS3/NS4 complexes
  IC50: < 10 nM

## COc1ccc(-c2nnn([C@@H]3C[C@H]4C(=O)N[C@]5(C(=O)NS(=O)(=O)C6(C)CC6)C[C@H]5/C=C\CCCCC[C@H](NC(=O)OC(C)(C)C)C(=O)N4C3)n2)cc1 [Compound 803]
Hepatitis C replicon; [1]
  EC50: 10 to 100 nM
NS3/NS4 complexes
  IC50: < 10 nM

## CC1(S(=O)(=O)NC(=O)[C@@]23C[C@H]2/C=C\CCCCC[C@H](Nc2ccccc2)C(=O)N2C[C@H](n4cc(-c5ccccc5)nn4)C[C@H]2C(=O)N3)CC1 [Compound 1504]
Hepatitis C replicon; [1]
  EC50: > 100 nM
NS3/NS4 complexes
  IC50: 10 to 100 nM

## Cc1nc2ccccc2nc1O[C@@H]1C[C@H]2C(=O)N[C@]3(C(=O)NS(=O)(=O)C4(C)CC4)C[C@H]3/C=C\CCCCC[C@H](Nc3ccccc3)C(=O)N2C1 [Compound 310]
Hepatitis C replicon; [1]
  EC50: 10 to 100 nM
NS3/NS4 complexes
  IC50: < 10 nM

## CC(C)n1c(O[C@@H]2C[C@H]3C(=O)N[C@]4(C(=O)NS(=O)(=O)C5CC5)C[C@H]4/C=C\CCCCC[C@H](NC(=O)OC(C)(C)C)C(=O)N3C2)nc2c(-c3nc(-c4ccccc4)cs3)cccc21 [Compound 221]
Hepatitis C replicon; [1]
  EC50: < 10 nM
NS3/NS4 complexes
  IC50: < 10 nM

## CC(C)n1c(O[C@@H]2C[C@H]3C(=O)N[C@]4(C(=O)NS(=O)(=O)C5(C)CC5)C[C@H]4/C=C\CCCCC[C@H](NC(=O)O[C@@H]4C[C@@H]5C[C@@H]5C4)C(=O)N3C2)nc2c(-c3nc(-c4ccccc4)cs3)cccc21 [Compound 1731]
Hepatitis C replicon; [1]
  EC50: < 10 nM
NS3/NS4 complexes
  IC50: < 10 nM

## CC(C)n1c(O[C@@H]2C[C@H]3C(=O)N[C@]4(C(=O)O)C[C@H]4/C=C\CCCCC[C@H](Nc4ccc(F)cc4)C(=O)N3C2)nc2c(-c3nc(C4CCCC4)cs3)cccc21 [Compound 1762]
Hepatitis C replicon; [1]
  EC50: > 100 nM
NS3/NS4 complexes
  IC50: 10 to 100 nM

## CC1(S(=O)(=O)NC(=O)[C@@]23C[C@H]2/C=C\CCCCC[C@H](Nc2ccccc2)C(=O)N2C[C@H](n4nnc(-c5cccc(-c6nccs6)c5)n4)C[C@H]2C(=O)N3)CC1 [Compound 805]
Hepatitis C replicon; [1]
  EC50: > 100 nM
NS3/NS4 complexes
  IC50: < 10 nM

## CNC(=O)Nc1cccc2c1nc(O[C@@H]1C[C@H]3C(=O)N[C@]4(C(=O)NS(=O)(=O)C5(C)CC5)C[C@H]4/C=C\CCCCC[C@H](Nc4ccccc4)C(=O)N3C1)n2C(C)C [Compound 1406]
Hepatitis C replicon; [1]
  EC50: > 100 nM
NS3/NS4 complexes
  IC50: < 10 nM

## CC(C)n1c(O[C@@H]2C[C@H]3C(=O)N[C@]4(C(=O)NS(=O)(=O)C5(C)CC5)C[C@H]4/C=C\CCCCC[C@H](Nc4ccccc4)C(=O)N3C2)nc2c(NC(N)=O)cccc21 [Compound 1410]
Hepatitis C replicon; [1]
  EC50: 10 to 100 nM
NS3/NS4 complexes
  IC50: < 10 nM

## CC(C)n1c(O[C@@H]2C[C@H]3C(=O)N[C@]4(C(=O)NS(=O)(=O)N(C)C)C[C@H]4/C=C\CCCCC[C@H](NC(=O)OC(C)(C)C)C(=O)N3C2)nc2c(-c3nc(Cc4ccc(F)c(F)c4)cs3)cccc21 [Compound 1755]
Hepatitis C replicon; [1]
  EC50: 10 to 100 nM
NS3/NS4 complexes
  IC50: < 10 nM

## COc1ccc2c(O[C@@H]3C[C@H]4C(=O)N[C@]5(C(=O)NS(=O)(=O)C6(C)CC6)C[C@H]5/C=C\CCCCC[C@H](Nc5ccccn5)C(=O)N4C3)cc(-c3nc(C(C)C)cs3)nc2c1C [Compound 1002]
Hepatitis C replicon; [1]
  EC50: < 10 nM
NS3/NS4 complexes
  IC50: < 10 nM

## CC(C)NC(=O)Nc1cccc2c1nc(O[C@@H]1C[C@H]3C(=O)N[C@]4(C(=O)NS(=O)(=O)C5(C)CC5)C[C@H]4/C=C\CCCCC[C@H](Nc4ccccc4)C(=O)N3C1)n2C(C)C [Compound 1407]
Hepatitis C replicon; [1]
  EC50: 10 to 100 nM
NS3/NS4 complexes
  IC50: < 10 nM

## CC(C)n1c(O[C@@H]2C[C@H]3C(=O)N[C@]4(C(=O)NS(=O)(=O)N(C)C)C[C@H]4/C=C\CCCCC[C@H](NC(=O)OC(C)(C)C)C(=O)N3C2)nc2c(-c3nc(-c4ccccc4Cl)cs3)cccc21 [Compound 1749]
Hepatitis C replicon; [1]
  EC50: 10 to 100 nM
NS3/NS4 complexes
  IC50: < 10 nM

## CC(C)n1c(O[C@@H]2C[C@H]3C(=O)N[C@]4(C(=O)NS(=O)(=O)C5(C)CC5)C[C@H]4/C=C\CCCCC[C@H](NC(=O)OC(C)(C)C)C(=O)N3C2)nc2c(-c3cnc(N4CCCC4)cn3)cccc21 [Compound 1705]
Hepatitis C replicon; [1]
  EC50: < 10 nM
NS3/NS4 complexes
  IC50: < 10 nM

## CC(C)n1c(O[C@@H]2C[C@H]3C(=O)N[C@]4(C(=O)NS(=O)(=O)C5CC5)C[C@H]4/C=C\CCCCC[C@H](NC(=O)OC(C)(C)C)C(=O)N3C2)nc2c(-c3cccs3)cccc21 [Compound 213]
Hepatitis C replicon; [1]
  EC50: < 10 nM
NS3/NS4 complexes
  IC50: < 10 nM

## CC(C)n1c(O[C@@H]2C[C@H]3C(=O)N[C@]4(C(=O)NS(=O)(=O)C5CC5)C[C@H]4/C=C\CCCCC[C@H](NC(=O)OC(C)(C)C)C(=O)N3C2)nc2c(-c3ncco3)cccc21 [Compound 212]
Hepatitis C replicon; [1]
  EC50: < 10 nM
NS3/NS4 complexes
  IC50: < 10 nM

## CC(C)n1c(O[C@@H]2C[C@H]3C(=O)N[C@]4(C(=O)NS(=O)(=O)C5(C)CC5)C[C@H]4/C=C\CCCCC[C@H](NC(=O)OC(C)(C)C)C(=O)N3C2)nc2c(-c3csc(-c4ccccc4)n3)cccc21 [Compound 1701]
Hepatitis C replicon; [1]
  EC50: 10 to 100 nM
NS3/NS4 complexes
  IC50: < 10 nM

## CC(C)n1cnc2cc(O[C@@H]3C[C@H]4C(=O)N[C@]5(C(=O)NS(=O)(=O)C6(C)CC6)C[C@H]5/C=C\CCCCC[C@H](NC(=O)OC(C)(C)C)C(=O)N4C3)ccc21 [Compound 297]
Hepatitis C replicon; [1]
  EC50: > 100 nM
NS3/NS4 complexes
  IC50: < 10 nM

## CC(C)n1c(O[C@@H]2C[C@H]3C(=O)N[C@]4(C(=O)NS(=O)(=O)C5(C)CC5)C[C@H]4/C=C\CCCCC[C@H](Nc4cccc(F)c4)C(=O)N3C2)nc2c(-c3nc(C4CCCC4)cs3)cccc21 [Compound 1729]
Hepatitis C replicon; [1]
  EC50: 10 to 100 nM
NS3/NS4 complexes
  IC50: < 10 nM

## COc1ccc2c(O[C@@H]3C[C@H]4C(=O)N[C@]5(C(=O)NS(=O)(=O)C6(C)CC6)C[C@H]5/C=C\CCCCC[C@H](Nc5cccc(F)c5)C(=O)N4C3)nc(-c3nc(C(C)C)cs3)nc2c1C [Compound 901]
Hepatitis C replicon; [1]
  EC50: < 10 nM
NS3/NS4 complexes
  IC50: < 10 nM

## CC(C)n1c(O[C@@H]2C[C@H]3C(=O)N[C@]4(C(=O)NS(=O)(=O)N(C)C)C[C@H]4/C=C\CCCCC[C@H](NC(=O)OC(C)(C)C)C(=O)N3C2)nc2c(-c3nc(-c4ccccc4F)cs3)cccc21 [Compound 1747]
Hepatitis C replicon; [1]
  EC50: 10 to 100 nM
NS3/NS4 complexes
  IC50: < 10 nM

## CCn1c(O[C@@H]2C[C@H]3C(=O)N[C@]4(C(=O)NS(=O)(=O)N(C)C)C[C@H]4/C=C\CCCCC[C@H](NC(=O)OC(C)(C)C)C(=O)N3C2)nc2c(-c3nc(C(C)C)c(C)s3)cccc21 [Compound 1432]
Hepatitis C replicon; [1]
  EC50: 10 to 100 nM
NS3/NS4 complexes
  IC50: < 10 nM

## CC(C)n1c(O[C@@H]2C[C@H]3C(=O)N[C@]4(C(=O)NS(=O)(=O)C5(C)CC5)C[C@H]4/C=C\CCCCC[C@H](Nc4ccccc4)C(=O)N3C2)nc2c(-c3ccc(C#N)cc3)cccc21 [Compound 240]
Hepatitis C replicon; [1]
  EC50: 10 to 100 nM
NS3/NS4 complexes
  IC50: < 10 nM

## CC(C)c1csc(-c2cccc3c2nc(O[C@@H]2C[C@H]4C(=O)N[C@]5(C(=O)NS(=O)(=O)C6(C)CC6)C[C@H]5/C=C\CCCCC[C@H](NC(=O)OC5C[C@@H]6C[C@@H]6C5)C(=O)N4C2)n3C(C)C)n1 (some centres unmarked) [Compound 1411]
Hepatitis C replicon; [1]
  EC50: 10 to 100 nM

## CC(C)n1c(O[C@@H]2C[C@H]3C(=O)N[C@]4(C(=O)NS(=O)(=O)N(C)C)C[C@H]4/C=C\CCCCC[C@H](NC(=O)OC(C)(C)C)C(=O)N3C2)nc2c(-c3cccnc3)cccc21 [Compound 1738]
Hepatitis C replicon; [1]
  EC50: < 10 nM
